Results as given in patent US12077503B2, “Substituted cyclic amides and their use as herbicides” (FMC CORPORATION, priority 2015, dated 2024).
Where two headings read alike, the source gives them in different places.

Assays:
Type in all cases: in vivo
[1] = system: ryegrass, Italian (Italian ryegrass, Lolium multiflorum); assay: Test A preemergence; conditions: Lolium multiflorum, pre-emergence, 240 h; for pest or weed control at 125 g/ha: 125 g ai/ha; for pest or weed control at 500 g/ha: 500 g ai/ha
Outline: (§1)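 Seeded soil received test chemicals as a preemergence directed spray, and seedlings at one to two leaves, 2–10 cm tall, received them postemergence, in a non-phytotoxic, surfactant-containing solvent mixture. Pots were held in a greenhouse for approximately 10 d, then rated for injury from 0, no effect, to 100, complete control.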

[2] = system: barnyardgrass (Echinochloa crus-galli); assay: Test A preemergence; conditions: Echinochloa crus-galli, pre-emergence, 240 h; for pest or weed control at 125 g/ha: 125 g ai/ha; for pest or weed control at 500 g/ha: 500 g ai/ha
Outline: as §1

Kochia (Kochia scoparia) [3] = assay: Test A preemergence; conditions: Bassia scoparia, pre-emergence, 240 h; for pest or weed control at 125 g/ha: 125 g ai/ha; for pest or weed control at 500 g/ha: 500 g ai/ha
Outline: as §1

[4] = system: ragweed (common ragweed, Ambrosia elatior); assay: Test A preemergence; conditions: Ambrosia artemisiifolia, pre-emergence, 240 h; for pest or weed control at 125 g/ha: 125 g ai/ha; for pest or weed control at 500 g/ha: 500 g ai/ha
Outline: as §1

[5] = system: pigweed (Amaranthus retroflexus); assay: Test A preemergence; conditions: Amaranthus retroflexus, pre-emergence, 240 h; for pest or weed control at 125 g/ha: 125 g ai/ha; for pest or weed control at 500 g/ha: 500 g ai/ha
[6] = system: giant foxtail (Setaria faberii); assay: Test A preemergence; conditions: Setaria faberi, pre-emergence, 240 h; for pest or weed control at 125 g/ha: 125 g ai/ha; for pest or weed control at 500 g/ha: 500 g ai/ha
Outline: as §1

[7] = system: Galium (catchweed bedstraw, Galium aparine); assay: Test A postemergence; conditions: Galium, post-emergence, 240 h; for pest or weed control at 125 g/ha: 125 g ai/ha
Outline: as §1

[8] = system: blackgrass (Alopecurus myosuroides); assay: Test A postemergence; conditions: Alopecurus myosuroides, post-emergence, 240 h; for pest or weed control at 125 g/ha: 125 g ai/ha
Outline: as §1

[9] = system: barnyardgrass (Echinochloa crus-galli); assay: Test A postemergence; conditions: Echinochloa crus-galli, post-emergence, 240 h, 125 g ai/ha, postemergence; visual injury after approximately 10 d; 0 to 100 scale (0 no effect, 100 complete control); read-out: Plant response rating, Barnyardgrass
Outline: as §1

corn (Zea mays) = assay: Test A postemergence; conditions: Zea mays, post-emergence, 240 h
Outline: as §1

Kochia (Kochia scoparia) [10] = assay: Test A postemergence; conditions: Bassia scoparia, post-emergence, 240 h; for pest or weed control at 125 g/ha: 125 g ai/ha
Outline: as §1

[11] = system: ragweed (common ragweed, Ambrosia elatior); assay: Test A postemergence; conditions: Ambrosia artemisiifolia, post-emergence, 240 h; for pest or weed control at 125 g/ha: 125 g ai/ha
Outline: as §1

[12] = system: pigweed (Amaranthus retroflexus); assay: Test A postemergence; conditions: Amaranthus retroflexus, post-emergence, 240 h; for pest or weed control at 125 g/ha: 125 g ai/ha
Outline: as §1

[13] = system: giant foxtail (Setaria faberii); assay: Test A postemergence; conditions: Setaria faberi, post-emergence, 240 h; for pest or weed control at 125 g/ha: 125 g ai/ha
Outline: as §1

[14] = system: wheat (Triticum aestivum); assay: Test A postemergence; conditions: Triticum aestivum, post-emergence, 240 h, Postemergence
Outline: as §1

With CN1C[C@H](c2ccc(OC(F)F)cc2)[C@@H](C(=O)Nc2ccccc2S(C)(=O)=O)C1=O [Compound 788] the pest or weed control at 125 g/ha ([1]; preemergence, visual rating after approx. 10 d, 0 to 100 scale where 0 is no effect and 100 is complete control, read-out: Plant response rating, Ryegrass, Italian) was 0%, the pest or weed control at 500 g/ha ([1]; Preemergence, visual injury vs untreated controls after approximately 10 d, read-out: Ryegrass, Italian plant response rating (0 to 100 scale where 0 is no effect and 100 is complete control)) was 40% and the pest or weed control at 125 g/ha ([2]; preemergence, visual rating after approx. 10 d, 0 to 100 scale where 0 is no effect and 100 is complete control, read-out: Plant response rating, Barnyardgrass) was 90%. The pest or weed control at 500 g/ha ([2]; Preemergence, visual injury vs untreated controls after approximately 10 d, read-out: Barnyardgrass plant response rating (0 to 100 scale where 0 is no effect and 100 is complete control)) was 90%, the pest or weed control at 125 g/ha (Kochia (Kochia scoparia) [3]; preemergence, visual rating after approx. 10 d, 0 to 100 scale where 0 is no effect and 100 is complete control, read-out: Plant response rating, Kochia) was 80% and the pest or weed control at 500 g/ha (Kochia (Kochia scoparia) [3]; Preemergence, visual injury vs untreated controls after approximately 10 d, read-out: Kochia plant response rating (0 to 100 scale where 0 is no effect and 100 is complete control)) was 80%. For the same compound, the pest or weed control at 125 g/ha ([4]; preemergence, visual rating after approx. 10 d, 0 to 100 scale where 0 is no effect and 100 is complete control, read-out: Plant response rating, Ragweed) was 80%, the pest or weed control at 500 g/ha ([4]; Preemergence, visual injury vs untreated controls after approximately 10 d, read-out: Ragweed plant response rating (0 to 100 scale where 0 is no effect and 100 is complete control)) was 90% and the pest or weed control at 125 g/ha ([5]; preemergence, visual rating after approx. 10 d, 0 to 100 scale where 0 is no effect and 100 is complete control, read-out: Plant response rating, Pigweed) was 80%. The pest or weed control at 500 g/ha ([5]; Preemergence, visual injury vs untreated controls after approximately 10 d, read-out: Pigweed plant response rating (0 to 100 scale where 0 is no effect and 100 is complete control)) was 90%, the pest or weed control at 125 g/ha ([6]; preemergence, visual rating after approx. 10 d, 0 to 100 scale where 0 is no effect and 100 is complete control, read-out: Plant response rating, Foxtail, Giant) was 90% and the pest or weed control at 500 g/ha ([6]; Preemergence, visual injury vs untreated controls after approximately 10 d, read-out: Foxtail, Giant plant response rating (0 to 100 scale where 0 is no effect and 100 is complete control)) was 100%. It also gave a pest or weed control at 125 g/ha ([7]; postemergence, visual injury after approximately 10 d, 0 to 100 scale (0 no effect, 100 complete control), read-out: Plant response rating, Galium) of 50%, a pest or weed control at 125 g/ha ([8]; postemergence, visual injury after approximately 10 d, 0 to 100 scale (0 no effect, 100 complete control), read-out: Plant response rating, Blackgrass) of 20% and a pest or weed control at 125 g/ha [9] of 80%. The Corn plant response rating (crop injury, 0 = no effect, 100 = complete kill) at 125 g/ha (corn (Zea mays); 125 g ai/ha, postemergence, visual injury after approximately 10 d, 0 to 100 scale (0 no effect, 100 complete control)) was 20%, the pest or weed control at 125 g/ha (Kochia (Kochia scoparia) [10]; postemergence, visual injury after approximately 10 d, 0 to 100 scale (0 no effect, 100 complete control), read-out: Plant response rating, Kochia) was 40% and the pest or weed control at 125 g/ha ([11]; postemergence, visual injury after approximately 10 d, 0 to 100 scale (0 no effect, 100 complete control), read-out: Plant response rating, Ragweed) was 40%. It also gave a pest or weed control at 125 g/ha ([12]; postemergence, visual injury after approximately 10 d, 0 to 100 scale (0 no effect, 100 complete control), read-out: Plant response rating, Pigweed) of 60% and a pest or weed control at 125 g/ha ([13]; postemergence, visual injury after approximately 10 d, 0 to 100 scale (0 no effect, 100 complete control), read-out: Plant response rating, Foxtail, Giant) of 70%.
CN1C[C@H](c2ccc(C(F)(F)F)nc2)[C@@H](C(=O)Nc2cccc(F)c2F)C1=O [Compound 1372] showed a pest or weed control at 500 g/ha ([1]; preemergence, 0 to 100 scale (0 no effect, 100 complete control), read-out: Plant response rating, Ryegrass, Italian) of 60%, a pest or weed control at 125 g/ha ([1]; Preemergence, 0 to 100 scale (0 no effect, 100 complete control), read-out: Plant response rating, Ryegrass, Italian) of 60% and a pest or weed control at 500 g/ha ([2]; preemergence, 0 to 100 scale (0 no effect, 100 complete control), read-out: Plant response rating, Barnyardgrass) of 100%. It also gave a pest or weed control at 125 g/ha ([2]; Preemergence, 0 to 100 scale (0 no effect, 100 complete control), read-out: Plant response rating, Barnyardgrass) of 90%, a pest or weed control at 500 g/ha (Kochia (Kochia scoparia) [3]; preemergence, 0 to 100 scale (0 no effect, 100 complete control), read-out: Plant response rating, Kochia) of 90% and a pest or weed control at 125 g/ha (Kochia (Kochia scoparia) [3]; Preemergence, 0 to 100 scale (0 no effect, 100 complete control), read-out: Plant response rating, Kochia) of 90%. It also gave a pest or weed control at 500 g/ha ([4]; preemergence, 0 to 100 scale (0 no effect, 100 complete control), read-out: Plant response rating, Ragweed) of 90%, a pest or weed control at 125 g/ha ([4]; Preemergence, 0 to 100 scale (0 no effect, 100 complete control), read-out: Plant response rating, Ragweed) of 90% and a pest or weed control at 500 g/ha ([5]; preemergence, 0 to 100 scale (0 no effect, 100 complete control), read-out: Plant response rating, Pigweed) of 90%. The pest or weed control at 125 g/ha ([5]; Preemergence, 0 to 100 scale (0 no effect, 100 complete control), read-out: Plant response rating, Pigweed) was 90%, the pest or weed control at 500 g/ha ([6]; preemergence, 0 to 100 scale (0 no effect, 100 complete control), read-out: Plant response rating, Foxtail, Giant) was 100% and the pest or weed control at 125 g/ha ([6]; Preemergence, 0 to 100 scale (0 no effect, 100 complete control), read-out: Plant response rating, Foxtail, Giant) was 90%. For the same compound, the pest or weed control at 125 g/ha ([7]; Postemergence, visual rating about 10 d after treatment, read-out: Galium plant response rating (0 to 100 scale)) was 60%, the pest or weed control at 500 g/ha ([7]; Postemergence, 500 g ai/ha, visual injury, 0 to 100 scale (0 no effect, 100 complete control), approx. 10 d, read-out: Plant response rating, Galium) was 70% and the pest or weed control at 125 g/ha ([8]; Postemergence, visual rating about 10 d after treatment, read-out: Blackgrass plant response rating (0 to 100 scale)) was 50%. For the same compound, the pest or weed control at 500 g/ha ([8]; Postemergence, 500 g ai/ha, visual injury, 0 to 100 scale (0 no effect, 100 complete control), approx. 10 d, read-out: Plant response rating, Blackgrass) was 70%, the plant injury at 125 g/ha (corn (Zea mays); 125 g ai/ha, Postemergence, visual rating about 10 d after treatment, read-out: Corn plant response rating (0 to 100 scale)) was 70% and the Corn plant response rating (crop injury, 0 = no effect, 100 = complete kill) at 500 g/ha (corn (Zea mays); Postemergence, 500 g ai/ha, visual injury, 0 to 100 scale (0 no effect, 100 complete control), approx. 10 d) was 90%. The pest or weed control at 125 g/ha (Kochia (Kochia scoparia) [10]; Postemergence, visual rating about 10 d after treatment, read-out: Kochia plant response rating (0 to 100 scale)) was 70%, the pest or weed control at 500 g/ha (Kochia (Kochia scoparia) [10]; Postemergence, 500 g ai/ha, visual injury, 0 to 100 scale (0 no effect, 100 complete control), approx. 10 d, read-out: Plant response rating, Kochia) was 80% and the plant injury at 125 g/ha ([14]; 125 g ai/ha, visual rating about 10 d after treatment, read-out: Wheat plant response rating (0 to 100 scale)) was 70%. It also gave a plant injury at 500 g/ha ([14]; 500 g ai/ha, visual injury, 0 to 100 scale (0 no effect, 100 complete control), approx. 10 d, read-out: Plant response rating, Wheat) of 90%, a pest or weed control at 125 g/ha ([11]; Postemergence, visual rating about 10 d after treatment, read-out: Ragweed plant response rating (0 to 100 scale)) of 60% and a pest or weed control at 500 g/ha ([11]; Postemergence, 500 g ai/ha, visual injury, 0 to 100 scale (0 no effect, 100 complete control), approx. 10 d, read-out: Plant response rating, Ragweed) of 60%. For the same compound, the pest or weed control at 125 g/ha ([12]; Postemergence, visual rating about 10 d after treatment, read-out: Pigweed plant response rating (0 to 100 scale)) was 60%, the pest or weed control at 500 g/ha ([12]; Postemergence, 500 g ai/ha, visual injury, 0 to 100 scale (0 no effect, 100 complete control), approx. 10 d, read-out: Plant response rating, Pigweed) was 80% and the pest or weed control at 125 g/ha ([13]; Postemergence, visual rating about 10 d after treatment, read-out: Foxtail, Giant plant response rating (0 to 100 scale)) was 90%. It also gave a pest or weed control at 500 g/ha ([13]; Postemergence, 500 g ai/ha, visual injury, 0 to 100 scale (0 no effect, 100 complete control), approx. 10 d, read-out: Plant response rating, Foxtail, Giant) of 90%.
